The record followed here is patent US20130196986A1 (priority 2010, published 2013).

The target of the assay is T1, P2X7 receptor (Homo sapiens, UniProt Q99572).
T1 construct: stably expressing the full length P2X7 receptor; expressed in transfected cells
T1 sequence (Q99572 1-595): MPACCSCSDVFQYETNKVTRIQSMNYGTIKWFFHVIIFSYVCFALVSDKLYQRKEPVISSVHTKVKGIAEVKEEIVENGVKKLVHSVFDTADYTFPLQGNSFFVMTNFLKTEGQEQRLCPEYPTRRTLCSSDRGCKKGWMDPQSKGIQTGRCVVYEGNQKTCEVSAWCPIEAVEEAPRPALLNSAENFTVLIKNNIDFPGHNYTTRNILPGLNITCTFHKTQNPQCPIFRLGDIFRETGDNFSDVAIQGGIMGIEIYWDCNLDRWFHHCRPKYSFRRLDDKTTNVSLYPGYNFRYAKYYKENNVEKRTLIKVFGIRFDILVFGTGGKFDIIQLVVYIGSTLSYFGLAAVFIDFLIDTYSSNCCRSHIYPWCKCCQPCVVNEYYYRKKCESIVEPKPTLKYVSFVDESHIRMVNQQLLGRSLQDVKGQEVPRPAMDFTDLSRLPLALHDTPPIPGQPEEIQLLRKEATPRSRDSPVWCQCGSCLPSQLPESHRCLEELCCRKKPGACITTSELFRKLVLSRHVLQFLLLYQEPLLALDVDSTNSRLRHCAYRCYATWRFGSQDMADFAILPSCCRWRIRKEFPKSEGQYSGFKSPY
Nature of the assay: Ca++ flux assay (FLIPR) in P2X7-HEK-293 cell line stably expressing the full length P2X7 receptor, Bz-ATP activation. The following applies: P2X7-HEK-293 cells; agonist Bz-ATP; fluorescence as total area over 90 seconds; read-out: P2X7 Ca Flux hu IC50. Format: cell-based. How it is done:
The ability of Triazolopyrazinone Compounds to inhibit P2X7 function can be determined in Ca^++ flux assay using a P2X7-HEK-293 cell line stably expressing the full length P2X7 receptor. The assay protocol is as described in Cheewatrakoolpong et al., Biochem. Biophys. Res. Commun. 332:17-27 (2005) with minor modification, and is as summarized hereinafter. Briefly, cells were plated in poly-D-lysine-coated wells, and incubated at 37° C. for 24 hours. Cells were then incubated for 1 hour with a loading buffer which contains a dye sensitive to changes in Ca^++ concentration (lx Calcium Plus no wash dye from Molecular Devices, Sunnyvale, Calif.). The test compounds were added to the wells in the dye loading step. Plates containing the wells were transferred to a Fluorometric Imaging Plate Reader (Molecular Devices, Sunnyvale, Calif.). The cells were activated by the addition of the P2X7 receptor agonist 2′(3) —O-(4-benzoylbenzoyl)adenosine 5′-triphosphate (Bz-ATP from Sigma-Aldrich, St. Louis, Mo.), and the fluorescence was monitored for 90 seconds. The fluorescent signal was determined as the total area over the 90 second run time. Using this protocol, representative Triazolopyrazinone Compounds, compounds 1471 were tested. Tables 3 to 6 show the concentration at which 50% of the maximum response in the Ca^++ was inhibited (IC50) for each of the test compounds.

Structures are written as SMILES.

In general, IC50 refers to the midpoint of a concentration-inhibition curve. As to `Cc1c(-n2ccn3c(SCc4nc5ccccc5n4C)nnc3c2=O)cccc1C(F)(F)F` [Compound 3, 3-((1-methyl-1H-benzo[d]imidazol-2-yl)methylthio)-7-(2-methyl-3-(trifluoromethyl)phenyl)-[1,2,4]triazolo[4,3-a]pyrazin-8(7H)-one], the IC50 is 5670 nM. As for `Cc1c(-n2ccn3c(SCc4cccc5c4-c4ccccc4C5)nnc3c2=O)cccc1C(F)(F)F` [Compound 4, 3-((9H-fluoren-4-yl)methylthio)-7-(2-methyl-3-(trifluoromethyl)phenyl)-[1,2,4]triazolo[4,3-a]pyrazin-8(7H)-one], the IC50 is 264 nM. As to `Cc1cccc(-c2ccccc2CSc2nnc3c(=O)n(-c4cccc(C(F)(F)F)c4C)ccn23)c1` [Compound 5, 7-(2-methyl-3-(trifluorornethyl)phenyl)-3-((3'-methylbiphenyl-2-yl)methylthio)-[1,2,4]triazolo[4,3-a]pyrazin-8(7H)-one], the IC50 stood at 30.4 nM. `Cc1ccc(-c2ccccc2CSc2nnc3c(=O)n(-c4cccc(C(F)(F)F)c4C)ccn23)s1` [Compound 6, 7-(2-methyl-3-(trifluoromethyl)phenyl)-3-(2-(5-methylthiophen-2-yl)benzylthio)-[1,2,4]triazolo[4,3-a]pyrazin-8(7H)-one]: the IC50 is 37 nM. For `Cc1ccc(-c2ccccc2CSc2nnc3c(=O)n(-c4cccc(C(F)(F)F)c4C)ccn23)cc1` [Compound 7, 7-(2-methyl-3-(trifluoromethyl)phenyl)-3-((4′-methylbiphenyl-2-yl)methylthio)-[1,2,4]triazolo[4,3-a]pyrazin-8(7H)-one], the IC50 amounted to 66.7 nM. As to `Cc1c(-n2ccn3c(SCc4ccccc4-c4ccc(C(F)(F)F)cc4)nnc3c2=O)cccc1C(F)(F)F` [Compound 8, 7-(2-methyl-3-(trifluoromethyl)phenyl)-3-((4′-(trifluoromethyl)biphenyl-2-yl)rnethylthio)-[1,2,4]triazolo[4,3-a]pyrazin-8(7H)-one], the IC50 stood at 905 nM. As for `Cc1c(-n2ccn3c(SCc4ccccc4-c4ccc(Cl)cc4)nnc3c2=O)cccc1C(F)(F)F` [Compound 9, 3-((4′-chlorobiphenyl-2-yl)nrethylthio)-7-(2-methyl-3-(trifluoromethyl)phenyl)-[1,2,4]triazolo[4,3-a]pyrazin-8(7H)-one], the figure is 102 nM; as for `Cc1c(-n2ccn3c(SCc4ccccc4-c4ccc(F)cc4)nnc3c2=O)cccc1C(F)(F)F` [Compound 10, 3-((4′-fluorobiphenyl-2-yl)rnethylthio)-7-(2-methyl-3-(trifluoromethyl)phenyl)-[1,2,4]triazolo[4,3-a]pyrazin-8(7H)-one], 42.6 nM; as for `Cc1c(-n2ccn3c(SCc4ccccc4I)nnc3c2=O)cccc1C(F)(F)F` [Compound 11], 106 nM.

As to `Cc1c(-n2ccn3c(SCc4ccccc4Br)nnc3c2=O)cccc1C(F)(F)F` [Compound 12, 3-(2-bromobenzylthio)-7-(2-methyl-3-(trifluoromethyl)phenyl)-[1,2,4]triazolo[4,3-a]pyrazin-8(7H)-one], the IC50 worked out at 107 nM. For the molecule `Cc1c(-n2ccn3c(SCc4cccc(F)c4Cl)nnc3c2=O)cccc1C(F)(F)F` [Compound 13, 3-(2-chloro-3-fluorobenzylthio)-7-(2-methyl-3-(trifluoromethyl)phenyl)-[1,2,4]triazolo[4,3-a]pyrazin-8(7H)-one], the IC50 was 130 nM. `Cc1c(-n2ccn3c(SCc4ccsc4)nnc3c2=O)cccc1C(F)(F)F` [Compound 14, 7-(2-methyl-3-(trifluoromethyl)phenyl)-3-(thiophen-3-ylmethylthio)-[1,2,4]triazolo[4,3-a]pyrazin-8(7H)-one]: the IC50 is 38.1 nM.

Take `Cc1c(-n2ccn3c(SCc4cccs4)nnc3c2=O)cccc1C(F)(F)F` [Compound 15, 7-(2-methyl-3-(trifluoromethyl)phenyl)-3-(thiophen-2-ylmethylthio)-[1,2,4]triazolo[4,3-a]pyrazin-8(7H)-one]: the IC50 was 30.4 nM. `Cc1c(Cl)cccc1-n1ccn2c(SCc3cccc(F)c3Cl)nnc2c1=O` [Compound 16, 7-(3-chloro-2-methylphenyl)-3-(2-chloro-3-fluorobenzylthio)-[1,2,4]triazolo[4,3-a]pyrazin-8(7H)-one]: the IC50 was found to be 286 nM.

Regarding `Cc1onc(-c2ccccc2)c1CSc1nnc2c(=O)n(-c3cccc(C(F)(F)F)c3C)ccn12` [Compound 17, 7-(2-methyl-3-(trifluoromethyl)phenyl)-3-((5-methyl-3-phenylisoxazo1-4-yl)methylthio)-[1,2,4]triazolo[4,3-a]pyrazin-8(7H)-one], the IC50 was 543 nM. `Cc1c(-n2ccn3c(SCc4ccccc4C(C)(C)C)nnc3c2=O)cccc1C(F)(F)F` [Compound 18, 3-(2-tert-butylbenzylthio)-7-(2-methyl-3-(trifluoromethyl)phenyl)-[1,2,4]triazolo[4,3-a]pyrazin-8(7H)-one]: the IC50 was determined as 56.9 nM. In the case of `Cc1c(Cl)cccc1-n1ccn2c(SCc3ccccc3C(C)(C)C)nnc2c1=O` [Compound 19, 3-(2-tent-butylbenzylthio)-7-(3-chloro-2-methylphenyl)-[1,2,4]triazolo[4,3-a]pyrazin-8(7H)-one], the IC50 stood at 165 nM. In the case of `Cc1c(-n2ccn3c(SCc4ccccc4Oc4ccccc4)nnc3c2=O)cccc1C(F)(F)F` [Compound 20, 7-(2-methyl-3-(trifluoromethyl)phenyl)-3-(2-phenoxybenzylthio)-[1,2,4]triazolo[4,3-a]pyrazin-8(7H)-one], the IC50 was 144 nM. In the case of `[2H]c1c([2H])c([2H])c(CSc2nnc3c(=O)n(-c4cccc(C(F)(F)F)c4C)ccn23)c([2H])c1[2H]` [Compound 21, deuterated-7-[2-methyl-3-(trifluoromethyl)phenyl]-3-[(phenyl-(d5)-methy)thio]-1,2,4-triazolo[4,3-a]pyrazin-8(7H)-one], the IC50 turned out to be 84.9 nM. `Cc1c(-n2ccn3c(SC(C(=O)c4ccccc4)c4ccccc4)nnc3c2=O)cccc1C(F)(F)F` (stereo not drawn) [Compound 22, 7-(2-methyl-3-(trifluoromethyl)phenyl)-3-(2-oxo-1,2-diphenylethylthio)-[1,2,4]triazolo[4,3-a]pyrazin-8(7H)-one]: the IC50 came out at 1450 nM.

As for `Cc1c(-n2ccn3c(SCc4ccccc4-c4cccs4)nnc3c2=O)cccc1C(F)(F)F` [Compound 23, 7-(2-methyl-3-(trifluoromethyl)phenyl)-3-(2-(thiophen-2-yl)benzylthio)-[1,2,4]triazolo[4,3-a]pyrazin-8(7H)-one], the IC50 amounted to 40.4 nM. As for `Cc1c(Cl)cccc1-n1ccn2c(SCc3ccccc3B(O)O)nnc2c1=O` [Compound 24, 2-((7-(3-chloro-2-methylphenyl)-8-oxo-7,8-dihydro-[1,2,4]triazolo[4,3-a]pyrazin-3-ylthio)rnethyl)phenylboronic acid], the figure is 1010 nM.

On to `O=c1c2nnc(SC(c3ccccc3)c3ccccc3)n2ccn1-c1cccc(C(F)(F)F)c1Cl` [Compound 25, 3-(benzhydrylthio)-7-(2-chloro-3-(trifluoromethyl)phenyl)-[1,2,4]triazolo[4,3-a]pyrazin-8(7H)-one], for which the IC50 came out at 41.7 nM. As for `O=c1c2nnc(SC3c4ccccc4-c4ccccc43)n2ccn1-c1cccc(C(F)(F)F)c1Cl` [Compound 26, 3-(9H-fluoren-9-ylthio)-7-(2-chloro-3-(trifluoromethyl)phenyl)-[1,2,4]triazolo[4,3-a]pyrazin-8(7H)-one], the figure is 47 nM. With `O=c1c2nnc(SCc3cccc4ccccc34)n2ccn1-c1cccc(C(F)(F)F)c1Cl` [Compound 27, 7-(2-chloro-3-(trifluoromethyl)phenyl)-3-(naphthalen-1-ylmethylthio)-[1,2,4]triazolo[4,3-a]pyrazin-8(7H)-one], the IC50 amounted to 166 nM.

As for `Cc1c(-n2ccn3c(SCc4ccccc4Cl)nnc3c2=O)cccc1C(F)(F)F` [Compound 28, 3-(2-chlorobenzylthio)-7-(2-methyl-3-(trifluoromethyl)phenyl)-[1,2,4]triazolo[4,3-a]pyrazin-8(7H)-one], the IC50 stood at 148 nM. As for `O=c1c2nnc(SCc3ccccc3)n2ccn1-c1cccc2ccccc12` [Compound 29, 3-(benzylthio)-7-(naphthalen-1-yl)-[1,2,4]-triazolo[4,3-a]pyrazin-8(7H)-one], the figure is 3630 nM.
